This note sets out measurements from US12378249B2, “Isoquinoline compounds and uses thereof” (Genentech, Inc., priority 2018, dated 2025).

Structures can show the parent of a compound that is named as a salt.

Chain of HPK1 (Q92918 whole entry T165E/S171E): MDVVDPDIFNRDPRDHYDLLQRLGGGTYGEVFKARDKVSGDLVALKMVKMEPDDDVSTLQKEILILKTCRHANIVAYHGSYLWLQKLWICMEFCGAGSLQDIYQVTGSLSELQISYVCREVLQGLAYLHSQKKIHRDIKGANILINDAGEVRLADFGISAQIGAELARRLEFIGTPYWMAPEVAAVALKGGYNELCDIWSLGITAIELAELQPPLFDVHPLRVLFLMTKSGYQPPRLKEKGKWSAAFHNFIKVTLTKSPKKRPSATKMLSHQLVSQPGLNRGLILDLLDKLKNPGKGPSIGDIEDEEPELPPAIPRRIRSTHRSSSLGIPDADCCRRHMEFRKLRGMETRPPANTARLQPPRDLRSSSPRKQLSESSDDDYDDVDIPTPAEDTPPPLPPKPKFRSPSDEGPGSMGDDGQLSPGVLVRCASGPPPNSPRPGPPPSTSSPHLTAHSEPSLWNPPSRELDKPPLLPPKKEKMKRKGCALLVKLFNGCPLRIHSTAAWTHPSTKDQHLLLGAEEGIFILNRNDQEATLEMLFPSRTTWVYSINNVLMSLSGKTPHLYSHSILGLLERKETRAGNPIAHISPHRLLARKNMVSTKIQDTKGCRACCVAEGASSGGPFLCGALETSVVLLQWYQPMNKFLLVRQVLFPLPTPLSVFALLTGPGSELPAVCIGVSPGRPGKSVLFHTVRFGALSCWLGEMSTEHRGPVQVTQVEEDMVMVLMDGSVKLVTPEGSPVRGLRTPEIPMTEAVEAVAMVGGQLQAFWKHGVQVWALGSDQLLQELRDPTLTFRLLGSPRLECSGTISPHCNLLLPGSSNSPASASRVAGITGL

This experiment concerns the target HPK1 (Homo sapiens (Human), UniProt Q92918, S171E/T165E). The experiment can be described thus: HPK1-FL HTRF Enzymatic Assay (HTRF). The following applies: HPK full length T165E S171E 0.125 nM, ATP 1 mM, Biotin-SLP76 100 nM, read-out: HPK1 Ki (nM), H = HTRF. In kind it is biochemical. As to the method:
Exemplary compounds of Formula (I) were tested to assess compound inhibition of HPK-1. The Ki for each exemplary compound was determined
Example B1: HPK1-FL HTRF Enzymatic Assay (“HTRF”)
HPK-FL enzyme phosphorylates Biotin-SLP-76 substrate in the presence of ATP at 1 mM and varying concentrations of test compound. Product is detected by FRET using Eu-anti-pSLP76 Ab and SA-XL665. Also see www.cisbio.com/HTRF for additional HTRF technology information.
• Echo555 compound dispenser • Agilent Bravo • Perkin Elmer Envision Final Assay Conditions:
Materials: • Assay plate: White ProxiPlate 384 F (PerkinElmer cat #6008289) • Kinase: HPK full length double mutant • Substrate: Biotin-SLP76 • ATP: 100 mM ATP • BSG: 2% BSG • DMSO: DMSO (Sigma cat #34869-100ML) • Reaction Buffer: H2O/50 mM HEPES, pH 7.5/10 mM MgCl2/2 mM TCEP/0.01% Brij-35/0.01% BSG • Detection mix:Eu-anti-pSLP76/SA-XL665 (Cisbio, #610SAXAC) Assay Procedure Ki determination:
To a 384 well Proxiplate with 80 nL compound or DMSO spotted on was added 4 μl/well kinase mix. The mixture was preincubated for 30 minutes and then 4 μl/well substrate mix was added. The solution was incubated for 60 min and then 4 μl/well detection mix was added. The solution was incubated for another 60 min. The plates were then loaded onto a Perkin Elmer Envision and the TR-FRET signal was measured at 615 and 665 nm. A ratio of […] was used to calculate the % activity at each concentration of compound.
For orientation: Time-resolved FRET reads energy transfer from a long-lived donor to a nearby acceptor.
With `Cc1ncc(-c2cc3cc(Nc4cc5n(n4)CC(=O)N(C(C)C)CC5F)ncc3cc2F)c(C)c1N` (racemic) [Compound 150, (+/-)-2-((6-(5-amino-4,6-dimethylpyridin-3-yl)-7-fluoroisoquinolin-3-yl)amino)-4-fluoro-6-isopropyl-5,6-dihydro-4H-pyrazolo[1,5-d][1,4]diazepin-7(8H)-one], the Ki (commonly a dissociation constant, usually derived from enzyme kinetics or from competition with a known ligand) is 0.15 nM.

Consider `Cc1c(N)cncc1-c1cc2cc(Nc3cc4n(n3)Cc3nccn3CC4O)ncc2c(F)c1F` (racemic) [Compound 170, (+/−)-8-((6-(5-amino-4-methylpyridin-3-yl)-7,8-difluoroisoquinolin-3-yl)amino)-5,6-dihydro-11H-imidazo[1,2-a]pyrazolo[1,5-d][1,4]diazepin-6-ol], for which the Ki amounted to 0.035 nM.

In the case of `Cc1c(-c2cc3cc(Nc4cc5n(n4)CC(=O)NCC5)ncc3cc2F)cnc2c1NC(C)CO2` (racemic) [Compound 182, (+/−)-2-((6-(2,8-dimethyl-2,3-dihydro-1H-pyrido[2,3-b][1,4]oxazin-7-yl)-7-fluoroisoquinolin-3-yl)amino)-5,6-dihydro-4H-pyrazolo[1,5-d][1,4]diazepin-7(8H)-one], the Ki turned out to be 0.073 nM.

As to `Cc1c(-c2cc3cc(Nc4cc5n(n4)CC(=O)NCC5)ncc3cc2F)cnc2c1NCC(C)O2` (racemic) [Compound 184, (+/−)-2-((6-(3,8-dimethyl-2,3-dihydro-1H-pyrido[2,3-b][1,4]oxazin-7-yl)-7-fluoroisoquinolin-3-yl)amino)-5,6-dihydro-4H-pyrazolo[1,5-d][1,4]diazepin-7(8H)-one], the inhibitory constant (Ki) is 0.018 nM.

As for `Cc1c(-c2cc3cc(Nc4cc5n(n4)Cc4nccn4CC5)ncc3cc2F)cnc2c1NCC[S+]2[O-]` (racemic) [Compound 189, (+/−)-7-(3-((5,6-dihydro-11H-imidazo[1,2-a]pyrazolo[1,5-d][1,4]diazepin-8-yl)amino)-7-fluoroisoquinolin-6-yl)-8-methyl-2,3-dihydro-1H-pyrido[2,3-b][1,4]thiazine 4-oxide], the Ki came to 0.48 nM.

As for `Cc1c(N)cncc1-c1cc2cc(Nc3cc4n(n3)C[S+]([O-])CC4)ncc2cc1F` (racemic) [Compound 191, (+/-)-2-((6-(5-amino-4-methylpyridin-3-yl)-7-fluoroisoquinolin-3-yl)amino)-4,5-dihydro-7H-pyrazolo[1,5-c][1,3]thiazine 6-oxide], the inhibition constant Ki stood at 2.6 nM.

Consider `Cc1c(-c2cc3cc(Nc4cc5n(n4)CC(=O)NCC5)ncc3cc2F)cnc2c1NCCC2O` (racemic) [Compound 201, (+/-)-2-((7-fluoro-6-(8-hydroxy-4-methyl-5,6,7,8-tetrahydro-1,5-naphthyridin-3-yl)isoquinolin-3-yl)amino)-5,6-dihydro-4H-pyrazolo[1,5-d][1,4]diazepin-7(8H)-one formate salt], for which the Ki was found to be 0.11 nM.

`CN1CCc2cc(Nc3cc4cc(-c5cncc6c5CCC6O)c(F)cc4cn3)nn2CC1=O` (racemic) [Compound 214, (+/-)-2-((7-fluoro-6-(7-hydroxy-6,7-dihydro-5H-cyclopenta[c]pyridin-4-yl)isoquinolin-3-yl)amino)-6-methyl-5,6-dihydro-4H-pyrazolo[1,5-d][1,4]diazepin-7(8H)-one]: the Ki is 9 nM.

Take `Cc1cc(C2CCCCO2)ncc1-c1cc2cc(Nc3cc4n(n3)CC(=O)N(C)CC4)ncc2cc1F` (racemic) [Compound 218, (+/-)-2-((7-fluoro-6-(4-methyl-6-(tetrahydro-2H-pyran-2-yl)pyridin-3-yl)isoquinolin-3-yl)amino)-6-methyl-5,6-dihydro-4H-pyrazolo[1,5-d][1,4]diazepin-7(8H)-one]: the Ki is 9 nM.

For `Cc1c(-c2cc3cc(Nc4ccn([C@H](C)C#N)n4)ncc3cc2F)cnc2c1NCCO2` (single isomer, unassigned) [Compound 109a, 2-(3-((7-fluoro-6-(8-methyl-2,3-dihydro-1H-pyrido[2,3-b][1,4]oxazin-7-yl)isoquinolin-3-yl)amino)-1H-pyrazol-1-yl)propanenitrile], the Ki came out at 2.17 nM.

Consider `Cc1c(-c2cc3cc(Nc4ccn([C@@H](C)C#N)n4)ncc3cc2F)cnc2c1NCCO2` (single isomer, unassigned) [Compound 109b, 2-(3-((7-fluoro-6-(8-methyl-2,3-dihydro-1H-pyrido[2,3-b][1,4]oxazin-7-yl)isoquinolin-3-yl)amino)-1H-pyrazol-1-yl)propanenitrile], for which the Ki was 1.19 nM.

For the molecule `Cc1c(-c2cc3cc(Nc4cc5n(n4)CC(=O)N(C(C)C)C[C@H]5O)ncc3cc2F)cnc2c1NCCO2` (single isomer, unassigned) [Compound 141a], the inhibition constant Ki amounted to 0.033 nM.

For the molecule `Cc1c(-c2cc3cc(Nc4cc5n(n4)CC(=O)N(C(C)C)CC5O)ncc3cc2F)cnc2c1NCCO2` (single isomer, unassigned) [Compound 141b], the inhibition constant (Ki) was 0.018 nM.

With `Cc1c(-c2cc3cc(Nc4cc5n(n4)CC(=O)N([C@@H](C)C#N)CC5)ncc3cc2F)cnc2c1NCCO2` (single isomer, unassigned) [Compound 147a], the inhibitory constant (Ki) was found to be 0.014 nM.

With `Cc1c(-c2cc3cc(Nc4cc5n(n4)CC(=O)N(C(C)C#N)CC5)ncc3cc2F)cnc2c1NCCO2` (single isomer, unassigned) [Compound 147b], the Ki stood at 0.013 nM.

Turning to `Cc1c(-c2cc3cc(Nc4cc5n(n4)CC(=O)N([C@@H](C)CO)CC5)ncc3cc2F)cnc2c1NCCO2` (single isomer, unassigned) [Compound 148a], the Ki was 0.013 nM.

For `Cc1c(-c2cc3cc(Nc4cc5n(n4)CC(=O)N(C(C)CO)CC5)ncc3cc2F)cnc2c1NCCO2` (single isomer, unassigned) [Compound 148b], the inhibition constant Ki is 0.013 nM.

On to `Cc1c(N)cncc1-c1cc2cc(Nc3cc4n(n3)CC(=O)N([C@@H](C)CO)CC4)ncc2cc1F` (single isomer, unassigned) [Compound 149a], for which the inhibitory constant (Ki) is 0.043 nM.

Take `Cc1c(N)cncc1-c1cc2cc(Nc3cc4n(n3)CC(=O)N(C(C)CO)CC4)ncc2cc1F` (single isomer, unassigned) [Compound 149b]: the inhibition constant Ki is 0.019 nM.

For `Cc1c(N)cncc1-c1cc2cc(Nc3cc4n(n3)CC(=O)N(C(C)C)C[C@H]4O)ncc2cc1F` (single isomer, unassigned) [Compound 153a], the Ki worked out at 0.064 nM.

As to `Cc1c(N)cncc1-c1cc2cc(Nc3cc4n(n3)CC(=O)N(C(C)C)CC4O)ncc2cc1F` (single isomer, unassigned) [Compound 153b], the inhibition constant (Ki) worked out at 0.075 nM.

`Cc1c(N)cncc1-c1cc2cc(Nc3cc4n(n3)CC(=O)N([C@@H](C)C#N)CC4)ncc2cc1F` (single isomer, unassigned) [Compound 154a]: the inhibitory constant (Ki) is 0.014 nM.

Consider `Cc1c(N)cncc1-c1cc2cc(Nc3cc4n(n3)CC(=O)N(C(C)C#N)CC4)ncc2cc1F` (single isomer, unassigned) [Compound 154b], for which the Ki came to 0.032 nM.

As for `Cc1c(N)cncc1-c1cc2cc(Nc3cc4n(n3)CC(=O)N(C(C)(C)C)C[C@H]4F)ncc2cc1F` (single isomer, unassigned) [Compound 167a], the Ki came out at 0.128 nM.

With `Cc1c(N)cncc1-c1cc2cc(Nc3cc4n(n3)CC(=O)N(C(C)(C)C)CC4F)ncc2cc1F` (single isomer, unassigned) [Compound 167b], the inhibitory constant (Ki) was 0.013 nM.

`Cc1c(-c2cc3cc(Nc4cc5n(n4)CC(=O)N(C)CC5)ncc3cc2F)cnc2c1C(O)CCO2` (single isomer, unassigned) [Compound 180a, 2-((7-Fluoro-6-(4-hydroxy-5-methyl-3,4-dihydro-2H-pyrano[2,3-b]pyridine-6-yl)isoquinolin-3-yl)amino)-6-methyl-5,6-dihydro-4H-pyrazolo[1,5-d][1,4]diazepin-7(8H)-one]: the Ki worked out at 0.05 nM.

With `Cc1c(-c2cc3cc(Nc4cc5n(n4)CC(=O)N(C)CC5)ncc3cc2F)cnc2c1C(O)CCO2` (single isomer, unassigned) [Compound 180b, 2-((7-Fluoro-6-(4-hydroxy-5-methyl-3,4-dihydro-2H-pyrano[2,3-b]pyridine-6-yl)isoquinolin-3-yl)amino)-6-methyl-5,6-dihydro-4H-pyrazolo[1,5-d][1,4]diazepin-7(8H)-one], the Ki was found to be 4.82 nM.

Consider `Cc1c(N)cncc1-c1cc2cc(Nc3cc4n(n3)CC(=O)N(C)C[C@@]4(C)O)ncc2cc1F` (single isomer, unassigned) [Compound 185a], for which the inhibition constant (Ki) amounted to 0.169 nM.

`Cc1c(N)cncc1-c1cc2cc(Nc3cc4n(n3)CC(=O)N(C)CC4(C)O)ncc2cc1F` (single isomer, unassigned) [Compound 185b]: the Ki was 0.037 nM.

Turning to `Cc1c(-c2cc3cc(Nc4cc5n(n4)CC(=O)N(C)CC54CC4)ncc3cc2F)cnc2c1NCC[C@H]2O` (single isomer, unassigned) [Compound 205a], the Ki was found to be 0.013 nM.

As for `Cc1c(-c2cc3cc(Nc4cc5n(n4)CC(=O)N(C)CC54CC4)ncc3cc2F)cnc2c1NCC[C@@H]2O` (single isomer, unassigned) [Compound 205b], the Ki turned out to be 0.013 nM.

On to `CN[C@@H]1CCN(c2cc(C)c(-c3cc4cc(Nc5cc6n(n5)CC(=O)N(C)CC6)ncc4cc3F)cn2)C1` (single isomer, unassigned) [Compound 206a], for which the Ki was 6.7 nM.
